{"source": "paper PMC4076210", "about": "“Discovery of Novel AKT Inhibitors with Enhanced Anti-Tumor Effects in Combination with the MEK Inhibitor” (PLoS ONE, 2014)", "format_in_all_cases": "biochemical", "key": {"[1]": {"molecular_target": "T1, CaMKIIγ(h) (Homo sapiens, UniProt Q13555)", "T1 construct": "purchased Millipore KinaseProfiler", "T1 sequence (Q13555 whole entry)": "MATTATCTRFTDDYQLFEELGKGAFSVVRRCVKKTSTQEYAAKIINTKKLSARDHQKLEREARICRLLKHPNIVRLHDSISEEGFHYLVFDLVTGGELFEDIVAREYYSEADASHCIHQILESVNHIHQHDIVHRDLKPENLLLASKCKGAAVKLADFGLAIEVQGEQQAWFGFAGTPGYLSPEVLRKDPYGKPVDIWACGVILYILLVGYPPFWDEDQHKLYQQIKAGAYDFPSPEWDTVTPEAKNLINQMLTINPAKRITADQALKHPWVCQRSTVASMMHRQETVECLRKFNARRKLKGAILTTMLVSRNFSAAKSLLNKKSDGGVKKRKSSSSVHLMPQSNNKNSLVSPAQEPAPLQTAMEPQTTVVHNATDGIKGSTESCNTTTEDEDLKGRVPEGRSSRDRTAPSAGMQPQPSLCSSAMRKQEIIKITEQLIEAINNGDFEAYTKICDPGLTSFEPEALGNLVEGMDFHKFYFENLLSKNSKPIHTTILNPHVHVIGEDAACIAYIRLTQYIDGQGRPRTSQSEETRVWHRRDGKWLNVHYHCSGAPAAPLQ", "experiment": "Kinase panel"}, "[2]": {"molecular_target": "T2, EphA3(h) (Homo sapiens, UniProt P29320)", "T2 construct": "purchased Millipore KinaseProfiler", "T2 sequence (P29320 21-983)": "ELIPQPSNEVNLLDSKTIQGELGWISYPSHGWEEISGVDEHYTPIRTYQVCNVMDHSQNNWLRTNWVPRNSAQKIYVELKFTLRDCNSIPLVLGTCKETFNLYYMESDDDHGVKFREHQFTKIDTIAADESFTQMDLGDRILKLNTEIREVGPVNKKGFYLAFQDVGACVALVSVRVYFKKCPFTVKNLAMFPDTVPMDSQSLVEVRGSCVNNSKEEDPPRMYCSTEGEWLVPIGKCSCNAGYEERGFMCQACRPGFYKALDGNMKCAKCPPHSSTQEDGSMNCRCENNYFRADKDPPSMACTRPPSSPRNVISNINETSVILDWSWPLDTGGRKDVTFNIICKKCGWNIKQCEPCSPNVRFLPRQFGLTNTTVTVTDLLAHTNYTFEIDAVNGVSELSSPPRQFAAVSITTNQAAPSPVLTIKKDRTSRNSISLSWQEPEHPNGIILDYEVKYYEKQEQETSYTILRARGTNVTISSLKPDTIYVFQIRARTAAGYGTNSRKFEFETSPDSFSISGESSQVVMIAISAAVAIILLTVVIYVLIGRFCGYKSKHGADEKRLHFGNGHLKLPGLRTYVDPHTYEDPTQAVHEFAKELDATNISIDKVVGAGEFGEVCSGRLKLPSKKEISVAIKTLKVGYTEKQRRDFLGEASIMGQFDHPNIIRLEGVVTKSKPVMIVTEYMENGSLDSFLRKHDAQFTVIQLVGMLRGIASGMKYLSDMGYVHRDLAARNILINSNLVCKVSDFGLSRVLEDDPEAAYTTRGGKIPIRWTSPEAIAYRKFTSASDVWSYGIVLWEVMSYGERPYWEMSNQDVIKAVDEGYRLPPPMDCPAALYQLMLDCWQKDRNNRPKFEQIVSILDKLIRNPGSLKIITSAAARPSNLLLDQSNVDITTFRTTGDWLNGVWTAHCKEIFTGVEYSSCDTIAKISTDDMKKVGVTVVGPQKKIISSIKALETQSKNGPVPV", "experiment": "Kinase panel"}, "[3]": {"molecular_target": "T3, FGFR1(h) (Homo sapiens, UniProt P11362)", "T3 construct": "purchased Millipore KinaseProfiler", "T3 sequence (P11362 22-822)": "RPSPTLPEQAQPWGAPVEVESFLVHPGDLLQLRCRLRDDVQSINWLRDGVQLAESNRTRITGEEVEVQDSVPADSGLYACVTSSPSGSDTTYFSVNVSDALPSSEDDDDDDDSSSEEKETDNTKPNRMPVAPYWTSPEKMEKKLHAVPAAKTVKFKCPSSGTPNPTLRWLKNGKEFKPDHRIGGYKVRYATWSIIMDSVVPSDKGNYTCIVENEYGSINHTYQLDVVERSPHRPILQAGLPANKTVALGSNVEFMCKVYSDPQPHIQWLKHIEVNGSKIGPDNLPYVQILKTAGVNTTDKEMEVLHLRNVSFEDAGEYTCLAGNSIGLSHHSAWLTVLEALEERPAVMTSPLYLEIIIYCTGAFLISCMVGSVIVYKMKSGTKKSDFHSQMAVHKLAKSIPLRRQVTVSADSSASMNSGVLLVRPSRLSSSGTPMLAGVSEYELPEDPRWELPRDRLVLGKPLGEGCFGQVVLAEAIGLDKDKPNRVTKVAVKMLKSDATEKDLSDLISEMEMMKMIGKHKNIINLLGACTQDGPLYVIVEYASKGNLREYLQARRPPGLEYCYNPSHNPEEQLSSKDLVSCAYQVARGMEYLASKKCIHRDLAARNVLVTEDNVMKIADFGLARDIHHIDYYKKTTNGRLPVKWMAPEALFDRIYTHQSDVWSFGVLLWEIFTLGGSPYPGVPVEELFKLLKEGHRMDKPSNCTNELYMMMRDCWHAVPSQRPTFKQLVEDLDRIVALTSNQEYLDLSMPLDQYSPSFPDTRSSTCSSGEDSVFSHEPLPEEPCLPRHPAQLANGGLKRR", "experiment": "Kinase panel"}, "[4]": {"molecular_target": "T4, KDR(h) (Homo sapiens, UniProt P35968)", "T4 construct": "purchased Millipore KinaseProfiler", "T4 sequence (P35968 20-1356)": "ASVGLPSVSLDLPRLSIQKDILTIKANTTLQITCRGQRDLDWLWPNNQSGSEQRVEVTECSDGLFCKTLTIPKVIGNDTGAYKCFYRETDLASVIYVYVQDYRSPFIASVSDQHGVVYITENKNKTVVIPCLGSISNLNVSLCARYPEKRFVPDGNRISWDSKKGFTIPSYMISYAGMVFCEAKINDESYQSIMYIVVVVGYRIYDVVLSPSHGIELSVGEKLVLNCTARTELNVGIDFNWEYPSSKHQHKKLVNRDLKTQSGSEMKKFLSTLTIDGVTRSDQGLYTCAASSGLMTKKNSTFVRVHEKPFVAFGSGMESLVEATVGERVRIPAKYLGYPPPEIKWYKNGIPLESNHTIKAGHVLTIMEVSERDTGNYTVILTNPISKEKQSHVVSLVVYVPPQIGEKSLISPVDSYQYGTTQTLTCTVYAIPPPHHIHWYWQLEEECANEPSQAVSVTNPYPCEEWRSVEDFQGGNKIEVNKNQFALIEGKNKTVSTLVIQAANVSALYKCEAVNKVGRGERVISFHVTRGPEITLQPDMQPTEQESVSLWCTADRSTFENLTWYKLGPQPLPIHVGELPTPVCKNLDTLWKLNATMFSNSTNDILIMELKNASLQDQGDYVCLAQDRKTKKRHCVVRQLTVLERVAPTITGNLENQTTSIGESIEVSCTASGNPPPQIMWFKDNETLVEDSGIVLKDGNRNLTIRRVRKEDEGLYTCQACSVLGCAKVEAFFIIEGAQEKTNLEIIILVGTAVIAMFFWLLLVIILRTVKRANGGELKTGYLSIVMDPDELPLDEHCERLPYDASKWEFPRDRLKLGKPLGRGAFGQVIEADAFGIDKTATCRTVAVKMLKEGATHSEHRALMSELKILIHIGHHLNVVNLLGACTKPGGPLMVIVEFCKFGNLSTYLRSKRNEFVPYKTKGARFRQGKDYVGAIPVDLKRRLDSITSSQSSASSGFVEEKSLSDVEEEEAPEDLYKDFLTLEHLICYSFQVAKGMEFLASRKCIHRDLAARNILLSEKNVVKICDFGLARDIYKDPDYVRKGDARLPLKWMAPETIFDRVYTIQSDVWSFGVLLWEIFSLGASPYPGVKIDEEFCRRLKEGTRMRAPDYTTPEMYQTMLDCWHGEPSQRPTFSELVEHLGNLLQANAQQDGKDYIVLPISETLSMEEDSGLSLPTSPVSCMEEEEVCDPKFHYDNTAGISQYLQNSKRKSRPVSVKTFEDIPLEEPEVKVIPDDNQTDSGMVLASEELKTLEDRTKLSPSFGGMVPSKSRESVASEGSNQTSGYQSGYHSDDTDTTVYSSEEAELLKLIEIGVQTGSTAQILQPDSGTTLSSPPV", "experiment": "Kinase panel"}, "[5]": {"molecular_target": "T5, p70S6K(h) (Homo sapiens, UniProt P23443)", "T5 construct": "purchased Millipore KinaseProfiler", "T5 sequence (P23443 whole entry)": "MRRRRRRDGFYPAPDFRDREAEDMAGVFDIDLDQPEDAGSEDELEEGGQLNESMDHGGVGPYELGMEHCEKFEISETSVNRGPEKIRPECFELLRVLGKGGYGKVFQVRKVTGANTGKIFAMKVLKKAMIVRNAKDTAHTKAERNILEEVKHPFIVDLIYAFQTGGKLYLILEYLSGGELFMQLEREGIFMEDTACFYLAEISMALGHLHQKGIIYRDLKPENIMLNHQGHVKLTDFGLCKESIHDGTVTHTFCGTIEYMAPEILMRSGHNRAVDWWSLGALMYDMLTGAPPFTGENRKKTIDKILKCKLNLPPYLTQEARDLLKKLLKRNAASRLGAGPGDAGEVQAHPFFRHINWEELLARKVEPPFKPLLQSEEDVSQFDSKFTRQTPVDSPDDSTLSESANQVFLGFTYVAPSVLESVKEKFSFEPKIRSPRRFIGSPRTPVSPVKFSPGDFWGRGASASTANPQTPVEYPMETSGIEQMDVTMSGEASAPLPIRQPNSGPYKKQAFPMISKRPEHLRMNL", "experiment": "Kinase panel"}, "[6]": {"molecular_target": "T6, PhKγ2(h) (Homo sapiens, UniProt P15735)", "T6 construct": "purchased Millipore KinaseProfiler", "T6 sequence (P15735 1-406)": "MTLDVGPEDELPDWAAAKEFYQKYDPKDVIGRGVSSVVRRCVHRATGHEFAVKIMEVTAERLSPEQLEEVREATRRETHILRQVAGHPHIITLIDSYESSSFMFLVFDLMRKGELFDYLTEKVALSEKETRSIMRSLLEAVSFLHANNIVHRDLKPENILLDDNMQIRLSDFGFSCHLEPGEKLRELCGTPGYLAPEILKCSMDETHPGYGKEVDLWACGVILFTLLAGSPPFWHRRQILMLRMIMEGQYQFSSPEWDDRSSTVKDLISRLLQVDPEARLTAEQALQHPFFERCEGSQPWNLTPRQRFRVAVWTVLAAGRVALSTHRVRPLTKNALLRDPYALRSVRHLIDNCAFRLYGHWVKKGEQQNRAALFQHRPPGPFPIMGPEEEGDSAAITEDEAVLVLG", "experiment": "Kinase panel"}, "[7]": {"molecular_target": "T7, PKCα(h) (Homo sapiens, UniProt P17252)", "T7 construct": "purchased Millipore KinaseProfiler", "experiment": "Kinase panel"}, "[8]": {"molecular_target": "T8, Rsk1(h) (Homo sapiens, UniProt Q15418)", "T8 construct": "purchased Millipore KinaseProfiler", "T8 sequence (Q15418 whole entry)": "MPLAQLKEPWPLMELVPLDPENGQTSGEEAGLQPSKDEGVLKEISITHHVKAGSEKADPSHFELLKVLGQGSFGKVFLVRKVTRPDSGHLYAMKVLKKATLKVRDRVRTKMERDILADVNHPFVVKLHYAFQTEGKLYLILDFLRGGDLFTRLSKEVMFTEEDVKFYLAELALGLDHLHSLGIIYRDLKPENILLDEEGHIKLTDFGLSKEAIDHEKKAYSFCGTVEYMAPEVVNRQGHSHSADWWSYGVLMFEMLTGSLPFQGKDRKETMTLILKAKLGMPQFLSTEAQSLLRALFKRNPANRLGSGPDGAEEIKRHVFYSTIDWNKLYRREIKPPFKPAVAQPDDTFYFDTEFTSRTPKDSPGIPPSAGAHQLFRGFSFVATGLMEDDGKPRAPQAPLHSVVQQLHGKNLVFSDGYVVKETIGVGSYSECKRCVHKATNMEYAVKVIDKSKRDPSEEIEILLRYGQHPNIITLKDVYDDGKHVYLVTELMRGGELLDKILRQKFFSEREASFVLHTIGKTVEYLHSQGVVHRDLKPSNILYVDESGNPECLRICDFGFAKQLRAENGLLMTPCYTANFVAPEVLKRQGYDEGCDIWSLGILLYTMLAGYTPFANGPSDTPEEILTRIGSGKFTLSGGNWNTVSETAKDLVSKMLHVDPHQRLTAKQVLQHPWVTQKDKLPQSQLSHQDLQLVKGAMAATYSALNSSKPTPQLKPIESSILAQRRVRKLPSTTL", "experiment": "Kinase panel"}, "[9]": {"molecular_target": "T9, TAO1(h) (Homo sapiens, UniProt Q7L7X3)", "T9 construct": "purchased Millipore KinaseProfiler", "T9 sequence (Q7L7X3 1-1001)": "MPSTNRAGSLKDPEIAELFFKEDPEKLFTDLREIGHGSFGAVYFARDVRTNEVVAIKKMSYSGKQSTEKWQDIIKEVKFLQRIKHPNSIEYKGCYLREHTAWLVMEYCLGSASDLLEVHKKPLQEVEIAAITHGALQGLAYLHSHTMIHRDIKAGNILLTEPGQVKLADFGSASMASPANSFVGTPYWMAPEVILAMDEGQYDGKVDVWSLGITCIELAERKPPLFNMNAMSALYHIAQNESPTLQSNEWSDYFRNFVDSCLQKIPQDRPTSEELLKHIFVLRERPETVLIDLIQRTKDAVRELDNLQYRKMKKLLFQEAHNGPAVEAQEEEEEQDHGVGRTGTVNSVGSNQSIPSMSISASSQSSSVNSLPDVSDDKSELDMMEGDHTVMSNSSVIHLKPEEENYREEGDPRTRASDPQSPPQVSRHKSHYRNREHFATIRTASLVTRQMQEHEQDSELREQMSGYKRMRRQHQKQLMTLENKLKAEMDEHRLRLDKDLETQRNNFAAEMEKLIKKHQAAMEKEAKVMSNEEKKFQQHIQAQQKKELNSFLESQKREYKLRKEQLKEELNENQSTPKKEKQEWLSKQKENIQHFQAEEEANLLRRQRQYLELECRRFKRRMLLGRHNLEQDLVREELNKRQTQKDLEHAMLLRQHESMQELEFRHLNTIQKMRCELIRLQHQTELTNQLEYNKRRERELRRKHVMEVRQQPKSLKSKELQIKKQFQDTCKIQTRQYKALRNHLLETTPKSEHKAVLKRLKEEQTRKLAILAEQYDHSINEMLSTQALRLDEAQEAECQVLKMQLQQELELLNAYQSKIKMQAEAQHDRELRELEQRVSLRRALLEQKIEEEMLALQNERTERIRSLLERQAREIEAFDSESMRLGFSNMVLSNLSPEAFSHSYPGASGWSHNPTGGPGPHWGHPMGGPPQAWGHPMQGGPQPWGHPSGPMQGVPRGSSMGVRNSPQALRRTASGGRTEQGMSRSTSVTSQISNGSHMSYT", "experiment": "Kinase panel"}, "[10]": {"molecular_target": "PKCα (Homo sapiens, UniProt P17252)", "experiment": "Kinase IC50 assay"}, "[11]": {"molecular_target": "PKCζ (Homo sapiens, UniProt Q05513)", "experiment": "Kinase IC50 assay"}}, "note": "Read-outs that look alike come from different tables or passages of the source.", "data": [{"smiles": "Cn1ncc(Cl)c1-c1cc(C(=O)N[C@H](CN)Cc2ccc(F)c(F)c2)oc1Cl", "note": "[GSK2141795]", "values": [{"measurement": "inhibition at 0.5 µM", "setting": "[1]; 0.5 µM, read-out: % Inhibition", "result": 48, "unit": "%"}, {"measurement": "inhibition at 10 µM", "setting": "[1]; 10 µM, read-out: % Inhibition", "result": 92, "unit": "%"}, {"measurement": "inhibition at 0.5 µM", "setting": "[2]; 0.5 µM, read-out: % Inhibition", "result": -7, "unit": "%"}, {"measurement": "inhibition at 10 µM", "setting": "[2]; 10 µM, read-out: % Inhibition", "result": 21, "unit": "%"}, {"measurement": "inhibition at 0.5 µM", "setting": "[3]; 0.5 µM, read-out: % Inhibition", "result": -15, "unit": "%"}, {"measurement": "inhibition at 10 µM", "setting": "[3]; 10 µM, read-out: % Inhibition", "result": -6, "unit": "%"}, {"measurement": "inhibition at 0.5 µM", "setting": "[4]; 0.5 µM, read-out: % Inhibition", "result": -6, "unit": "%"}, {"measurement": "inhibition at 10 µM", "setting": "[4]; 10 µM, read-out: % Inhibition", "result": -3, "unit": "%"}, {"measurement": "inhibition at 0.5 µM", "setting": "[5]; 0.5 µM, read-out: % Inhibition", "result": 88, "unit": "%"}, {"measurement": "inhibition at 10 µM", "setting": "[5]; 10 µM, read-out: % Inhibition", "result": 98, "unit": "%"}, {"measurement": "inhibition at 0.5 µM", "setting": "[6]; 0.5 µM, read-out: % Inhibition", "result": 23, "unit": "%"}, {"measurement": "inhibition at 10 µM", "setting": "[6]; 10 µM, read-out: % Inhibition", "result": 88, "unit": "%"}, {"measurement": "inhibition at 0.5 µM", "setting": "[7]; 0.5 µM, read-out: % Inhibition", "result": 10, "unit": "%"}, {"measurement": "inhibition at 10 µM", "setting": "[7]; 10 µM, read-out: % Inhibition", "result": 62, "unit": "%"}, {"measurement": "inhibition at 0.5 µM", "setting": "[8]; 0.5 µM, read-out: % Inhibition", "result": 44, "unit": "%"}, {"measurement": "inhibition at 10 µM", "setting": "[8]; 10 µM, read-out: % Inhibition", "result": 91, "unit": "%"}, {"measurement": "inhibition at 0.5 µM", "setting": "[9]; 0.5 µM, read-out: % Inhibition", "result": -4, "unit": "%"}, {"measurement": "inhibition at 10 µM", "setting": "[9]; 10 µM, read-out: % Inhibition", "result": 24, "unit": "%"}, {"measurement": "IC50", "setting": "[10]", "result": "> 1000", "unit": "nM"}, {"measurement": "IC50", "setting": "[11]", "result": "> 1000", "unit": "nM"}]}, {"smiles": "Cn1ncc(Cl)c1-c1cc(C(=O)N[C@H](CN)Cc2cccc(F)c2)sc1Cl", "note": "[GSK2110183]", "values": [{"measurement": "inhibition at 0.5 µM", "setting": "[1]", "result": 39, "unit": "%"}, {"measurement": "inhibition at 10 µM", "setting": "[1]", "result": 89, "unit": "%"}, {"measurement": "inhibition at 0.5 µM", "setting": "[2]", "result": 1, "unit": "%"}, {"measurement": "inhibition at 10 µM", "setting": "[2]", "result": 11, "unit": "%"}, {"measurement": "inhibition at 0.5 µM", "setting": "[3]", "result": -8, "unit": "%"}, {"measurement": "inhibition at 10 µM", "setting": "[3]", "result": -5, "unit": "%"}, {"measurement": "inhibition at 0.5 µM", "setting": "[4]", "result": 13, "unit": "%"}, {"measurement": "inhibition at 10 µM", "setting": "[4]", "result": 7, "unit": "%"}, {"measurement": "inhibition at 0.5 µM", "setting": "[5]", "result": 78, "unit": "%"}, {"measurement": "inhibition at 10 µM", "setting": "[5]", "result": 97, "unit": "%"}, {"measurement": "inhibition at 0.5 µM", "setting": "[6]", "result": 31, "unit": "%"}, {"measurement": "inhibition at 10 µM", "setting": "[6]", "result": 89, "unit": "%"}, {"measurement": "inhibition at 0.5 µM", "setting": "[7]", "result": 2, "unit": "%"}, {"measurement": "inhibition at 10 µM", "setting": "[7]", "result": 40, "unit": "%"}, {"measurement": "inhibition at 0.5 µM", "setting": "[8]", "result": 49, "unit": "%"}, {"measurement": "inhibition at 10 µM", "setting": "[8]", "result": 89, "unit": "%"}, {"measurement": "inhibition at 0.5 µM", "setting": "[9]", "result": 15, "unit": "%"}, {"measurement": "inhibition at 10 µM", "setting": "[9]", "result": 49, "unit": "%"}, {"measurement": "IC50", "setting": "[10]", "result": "> 1000", "unit": "nM"}, {"measurement": "IC50", "setting": "[11]", "result": "> 1000", "unit": "nM"}]}]}
